The values that follow come from patent US6790855B2 (priority 2000, dated 2004).

Counter-ions that a name gives are not always drawn. A value given as a limit tells only on which side of the number the result lay.

One test concerns mice. The test is described as follows: radiant heat tailflick assay after topical administration (tail immersed in DMSO drug solution). It counts as in vivo. To be noted: for response reached in dose-response curve: tested immediately; for response reached in dose-response curve / analgesic activity in words: FIG. 2; for analgesic activity in words: dose-response; for peak response: fixed low dose: morphine 1.5 mM, lidocaine 0.9 mM, alone or both together, FIG. 3a; for Opioid ED50 Value: opioid alone or opioid component of fixed-ratio combination; for analgesic response: constant concentration, FIG. 1a.

For another test, the system named is subject's finger. The test is described as follows: radiant light heat source finger latency after topical gel application. It counts as in vivo, human. To be noted: Lidocaine alone 0.125 mg/ml or morphine alone 0.25 mg/ml gel, FIG. 7.
The conditions of test [1]: as an analgesic and as a respiratory depressant; cited from earlier work.
Setting [2] is: 2 minutes exposure, listed as free base of lidocaine.
[3] abbreviates: topical, increasing concentrations, 2 minutes, FIG. 4.

Consider `CCN(CC)CC(=O)Nc1c(C)cccc1C` [Lidocaine HCl], for which, in the test on mice (2 minutes exposure, HCl), the “response reached in dose-response curve” value is given as 50-60% and the “analgesic activity in words” value is “less effective”.

As for `CN1CC[C@]23c4c5ccc(O)c4O[C@H]2[C@@H](O)C=C[C@H]3[C@H]1C5` [Morphine], the “analgesic activity in words” value with mice (2 minutes exposure) is “intermediate potency between the two forms of lidocaine”. In addition, the peak response in the test on mice turned out to be 20%. For the same compound, the Shift in the test on mice (morphine ED50, + lidocaine 0.45 mM vs alone) worked out at 1.7; in the test on mice (morphine ED50, + lidocaine 0.9 mM vs alone) it was 4.1; with mice (morphine ED50, + lidocaine 1.8 mM vs alone), 4.7. Also, the ED50 with mice (topical morphine + lidocaine 0.45 mM) came out at 3.6 mM; in the test on mice (topical morphine + lidocaine 0.9 mM), 1.5 mM; with mice (topical morphine + lidocaine 1.8 mM), 1.3 mM; with mice (topical, drug alone) it was 6.1 mM. Besides, the “Opioid ED50 Value” in the test on mice (topical, tailflick) was determined as 6.1 mM. Moreover, in the test with subject's finger, the “change in latency compared to baseline, in words” value is on record as “Neither morphine nor Lidocaine produced appreciable changes in latency”.

Take `CCN(CC)CC(=O)Nc1c(C)cccc1C` [Lidocaine]: in the test with mice (setting [2]), the “response reached in dose-response curve” value stood at 75%. Further, the “time of decrease to baseline levels” value in the test on mice (2 minutes exposure, time action curve over 30 minutes, FIG. 1b) is ≤ 20 min. The analgesic response is recorded as 20% in the test on mice (exposure 30 seconds) and 70% with mice (exposure 2 minutes). Further, the “analgesic activity in words” value in the test with mice (setting [2]) is listed as “biphasic dose-response curve”. The same compound registered a peak response in the test on mice of 20%. In addition, the Shift is given as 3.1 with mice (lidocaine ED50, + morphine 3.0 mM vs alone); 3.6 in the test with mice (lidocaine ED50, + morphine 4.5 mM vs alone); 2.5 in the test with mice (mouse, in vivo). Moreover, the ED50 in the test with mice (topical lidocaine + morphine 1.5 mM) is recorded as 1.0 mM; in the test with mice (topical lidocaine + morphine 3.0 mM), 0.8 mM; in the test on mice (topical lidocaine + morphine 4.5 mM), 0.7 mM; in the test on mice (topical, drug alone), 2.5 mM. Besides, in the test on mice (topical, tailflick, lidocaine alone (initial portion of curve) or lidocaine component of fixed-ratio combination), the “Lidocaine ED50 Value” was found to be 2.5 mM. The “change in latency compared to baseline, in words” value in the test on subject's finger is listed as “Neither morphine nor Lidocaine produced appreciable changes in latency”.

For the compound `COc1ccc2c3c1O[C@H]1[C@@H](O)C=C[C@H]4[C@@H](C2)N(C)CC[C@@]341` [codeine], in test [1], the “effectiveness orally relative to parenterally” value is on record as “approximately 60%”.

On to `CN1CC[C@]23CCCC[C@H]2[C@H]1Cc1ccc(O)cc13` [Levorphanol], for which, in the test with mice (setting [3]), the ED50 is recorded as 5.0 mM and the “analgesic response in words” value is “full analgesic responses”. The “Opioid ED50 Value” in the test with mice (topical, tailflick) turned out to be 5.0 mM.
